The source of these data is patent US8222487B2, “Application of ERF genes from Bupleurum kaoi” (National Tsing Hua University, priority 2009, dated 2012).

Bounds are passed on as bounds.

Experiment [1] has as its system B. kaoi adventitious roots. Put plainly: Effect of MeJA on saikosaponin production in adventitious roots (HPLC). Format: cell-based, Bupleurum kaoi. The settings on record: for Increase of total saikosaponins: 2 weeks after treatment, P<0.05; for Saikosaponin: measured 14 days after MeJA treatment, mean ± S.E., n=3. The method, then:
Adventitious root cultures were induced from the roots of germ-free seedlings of B. kaoi and were subcultured every 6 weeks by adding 0.2 g roots to a 125 ml flask containing 50 ml of B5 liquid medium supplemented with 2 mg 1^−1 NAA. Cultures were shaken using a rotary shaker at 100 rpm at 25° C. in the dark. To quantify the effect of MeJA on saikosaponin level, adventitious roots were treated with 500 and 1000 μM MeJA 2 weeks after subculture. Total saikosaponin was measured 2 weeks after MeJA treatment. To monitor expression of MeJA-responsive genes, the nutrient medium was refreshed 4 weeks after subculture and MeJA (500 μM) was applied 2 weeks after refreshment. Roots were harvested at 13 time points (5 min; 1, 2, 8, 24 hours; 2, 4, 6, 8 days; 2, 3, 4, 5 weeks) after the addition of the MeJA. The saikosaponins level was measured according to Li et al. (Li X. Q. et al., Biol. Pharm. Bull. 28 (2005) 1736-1742) with some modifications. Freeze-dried adventitious roots were ground into a fine powder and extracted with 70% methanol at a ratio of 10:1 (v/w) at 25° C. with gentle shaking for 24 h. After centrifugation at 10,000×g for 10 min, the supernatant was filtered through a 0.45 μm filter. The amount of total saikosaponins (saikosaponin-a, saikosaponin-c, and saikosaponin-d) in each extract was quantified using a high performance liquid chromatograph (HPLC) (Waters 600 controller autoinjector) with a C18 Inertsil 5 ODS-2 column (4.6 mm×250 mm) and a mobile phase of 45% acetonitrile/55% H2O. The flow rate was 1 ml min^−1, the injection volume was 20 μl, and the eluent was monitored at 210 nm using a Waters 996 photodiode array detector.

The test system of experiment [2] is B. kaoi adventitious roots. As to the kind of experiment: Fresh weight and appearance of adventitious roots after MeJA. Format: cell-based, Bupleurum kaoi. The method, then: FIG. 1 Effect of MeJA on fresh weight and appearance of B. kaoi adventitious roots. (A) Four weeks after subculture, the nutrient medium of B. kaoi adventitious roots was refreshed. MeJA (500 μM) was applied 2 weeks after refreshment. The fresh weights of adventitious roots were measured at 13 time points after MeJA treatment as indicated. (B) Adventitious roots treated with MeJA began to show dark brownish pigmentation after 2 weeks. Each panel is a representative of the adventitious roots at the indicated time points. The left and right flasks for each sub-panel indicate the control and MeJA treated adventitious roots, respectively. (C) H2O2 level and (D) MDA level were measured at the indicated time. Vertical bars indicate S.E. of the mean for n=3.
Adventitious root cultures were induced from the roots of germ-free seedlings of B. kaoi and were subcultured every 6 weeks by adding 0.2 g roots to a 125 ml flask containing 50 ml of B5 liquid medium supplemented with 2 mg 1^−1 NAA. Cultures were shaken using a rotary shaker at 100 rpm at 25° C. in the dark. To quantify the effect of MeJA on saikosaponin level, adventitious roots were treated with 500 and 1000 μM MeJA 2 weeks after subculture. Total saikosaponin was measured 2 weeks after MeJA treatment. […]

Experiment [3] concerns cell suspension cultures of Medicago truncatula. The settings on record: 5 μM MeJA for 2 h; cited from earlier work.
Experiment [4] relates to B. kaoi adventitious roots. As to the kind of experiment: Measurement of malondialdehyde (MDA) in adventitious roots. Format: cell-based, Bupleurum kaoi. The method, then:
(§1) To test whether MeJA caused oxidative stress, the H2O2 level was measured as described below. H2O2 was extracted by homogenizing 0.3 to 0.5 g of adventitious roots with 3 ml phosphate buffer (50 mM, pH6.8) and centrifuged at 6000×g for 25 min. A 2 ml extract was mixed with 1 ml 0.1% titanium sulfate in 20% H2SO4 (v/v), and centrifuged at 6000×g for 15 min. The optical density of the supernatant was measured at 410 nm using an equal volume of phosphate buffer as a blank. […] The MDA level was colorimetrically measured as described below. MDA was extracted by homogenizing 0.3 to 0.5 g adventitious roots with 2 ml 5% trichloroacetic acid, and centrifuged at 10,000×g for 5 min at 20° C. A mixture of 1 ml supernatant with 4 ml 0.5% thiobarbituric acid in 20% trichloroacetic acid was heated in a 95° C. water bath for 30 min and centrifuged for 10 min at 2000×g to remove haziness. Optical density of the supernatant was measured at 532 nm and 600 nm using 1 ml 5% trichloroacetic acid to replace supernatant as a blank.

In experiment [5] the test system is B. kaoi adventitious roots. Put plainly: Measurement of H2O2 in adventitious roots. Format: cell-based, Bupleurum kaoi. To be noted: 500 μM MeJA; during 5 weeks culture. The method, then: as §1

Take `CC/C=C\CC1C(=O)CCC1CC(=O)OC` (stereo not shown) [MeJA, Methyl jasmonate]: the “Increase of total saikosaponins” value in experiment [1] (500 μM MeJA) stood at 38 fold; in experiment [1] (1000 μM MeJA) it was 21 fold. In addition, the Saikosaponin in experiment [1] (MeJA 500 μM) is on record as 63.60 ± 20.46 μg g^−1 of dry wt; in experiment [1] (MeJA 1000 μM), 39.73 ± 13.25 μg g^−1 of dry wt. Also, the “Appearance of roots (pigmentation)” value in experiment [2] (500 μM MeJA, 2 weeks later, compared to control) was “marked pigmentation”. Also, in experiment [2] (8 days after 500 μM MeJA treatment), the “Growth of adventitious roots (fresh weight)” value is recorded as “retarded”. In experiment [3], the PAL transcripts induction is recorded as 3 fold. For the same molecule, in experiment [4] (500 μM MeJA, at 2 days), the “Increase in the MDA level” value amounted to 1.4 fold. For the same molecule, the “Accumulation of MDA” value in experiment [4] (all treatments during 5 weeks) was less than 47 nmol/g. The “H2O2 levels in the adventitious roots” value in experiment [5] is reported as “did not significantly change”.
